Legend:
[1] = biological target: D(3) dopamine receptor (Homo sapiens) (UniProt P35462); details: Compound concentration 10.0 uM
[2] = biological target: MAP kinase-activated protein kinase 5 (Homo sapiens) (UniProt Q8IW41); details: Compound concentration 1000.0 nM
[3] = biological target: 1-phosphatidylinositol 3-phosphate 5-kinase (Homo sapiens) (UniProt Q9Y2I7); details: Compound concentration 1000.0 nM
[4] = system: Phosphatidylinositol 4,5-bisphosphate 3-kinase catalytic subunit alpha isoform (Homo sapiens), P42336 [E542K]; details: Compound concentration 1000.0 nM
Phosphatidylinositol 4,5-bisphosphate 3-kinase catalytic subunit alpha isoform (Homo sapiens), P42336 [E542K], sequence (P42336 whole entry E542K, canonical isoform): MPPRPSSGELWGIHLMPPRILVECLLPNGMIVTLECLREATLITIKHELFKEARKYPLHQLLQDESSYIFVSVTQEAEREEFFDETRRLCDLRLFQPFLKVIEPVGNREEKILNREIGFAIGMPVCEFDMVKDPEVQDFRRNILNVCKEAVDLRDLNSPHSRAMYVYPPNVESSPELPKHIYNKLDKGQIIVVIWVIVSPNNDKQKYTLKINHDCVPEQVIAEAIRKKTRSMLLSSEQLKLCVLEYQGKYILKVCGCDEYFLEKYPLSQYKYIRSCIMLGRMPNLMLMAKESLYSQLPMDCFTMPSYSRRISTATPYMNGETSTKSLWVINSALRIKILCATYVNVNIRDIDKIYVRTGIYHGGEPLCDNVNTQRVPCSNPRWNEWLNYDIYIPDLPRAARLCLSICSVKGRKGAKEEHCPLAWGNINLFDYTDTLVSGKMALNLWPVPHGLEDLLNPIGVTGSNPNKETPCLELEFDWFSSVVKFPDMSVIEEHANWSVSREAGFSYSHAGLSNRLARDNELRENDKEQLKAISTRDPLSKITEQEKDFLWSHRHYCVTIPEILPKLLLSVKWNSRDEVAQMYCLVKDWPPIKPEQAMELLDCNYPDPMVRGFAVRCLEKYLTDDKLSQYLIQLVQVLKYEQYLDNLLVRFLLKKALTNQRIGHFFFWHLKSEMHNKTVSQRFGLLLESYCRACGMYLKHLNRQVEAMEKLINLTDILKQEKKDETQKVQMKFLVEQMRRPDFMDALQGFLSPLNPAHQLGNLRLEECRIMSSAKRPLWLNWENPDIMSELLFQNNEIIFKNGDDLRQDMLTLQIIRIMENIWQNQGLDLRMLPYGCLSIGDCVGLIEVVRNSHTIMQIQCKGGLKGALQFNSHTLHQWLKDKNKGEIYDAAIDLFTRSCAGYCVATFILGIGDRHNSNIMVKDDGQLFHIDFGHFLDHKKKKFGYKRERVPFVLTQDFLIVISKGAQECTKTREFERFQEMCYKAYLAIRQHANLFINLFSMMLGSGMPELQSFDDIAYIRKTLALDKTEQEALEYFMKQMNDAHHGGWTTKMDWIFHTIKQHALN

[5] = biological target: Ephrin type-A receptor 7 (Homo sapiens) (UniProt Q15375); details: Compound concentration 1000.0 nM
[6] = species: Rattus norvegicus; assay: SKCa channel Eurofins-Cerep binding assay; design: ligand concentration 0.007 nM; details: filed as antagonist, Compound concentration 10.0 uM
[7] = biological target: Serine/threonine-protein kinase Sgk1 (Homo sapiens) (UniProt O00141); details: Compound concentration 1000.0 nM
[8] = biological target: Testis-specific serine/threonine-protein kinase 1 (Homo sapiens) (UniProt Q9BXA7); details: Compound concentration 1000.0 nM
[9] = system: Mast/stem cell growth factor receptor Kit (Homo sapiens), P10721 [V559D,T670I]; details: Compound concentration 1000.0 nM
Mast/stem cell growth factor receptor Kit (Homo sapiens), P10721 [V559D,T670I], sequence (P10721 whole entry V559D/T670I): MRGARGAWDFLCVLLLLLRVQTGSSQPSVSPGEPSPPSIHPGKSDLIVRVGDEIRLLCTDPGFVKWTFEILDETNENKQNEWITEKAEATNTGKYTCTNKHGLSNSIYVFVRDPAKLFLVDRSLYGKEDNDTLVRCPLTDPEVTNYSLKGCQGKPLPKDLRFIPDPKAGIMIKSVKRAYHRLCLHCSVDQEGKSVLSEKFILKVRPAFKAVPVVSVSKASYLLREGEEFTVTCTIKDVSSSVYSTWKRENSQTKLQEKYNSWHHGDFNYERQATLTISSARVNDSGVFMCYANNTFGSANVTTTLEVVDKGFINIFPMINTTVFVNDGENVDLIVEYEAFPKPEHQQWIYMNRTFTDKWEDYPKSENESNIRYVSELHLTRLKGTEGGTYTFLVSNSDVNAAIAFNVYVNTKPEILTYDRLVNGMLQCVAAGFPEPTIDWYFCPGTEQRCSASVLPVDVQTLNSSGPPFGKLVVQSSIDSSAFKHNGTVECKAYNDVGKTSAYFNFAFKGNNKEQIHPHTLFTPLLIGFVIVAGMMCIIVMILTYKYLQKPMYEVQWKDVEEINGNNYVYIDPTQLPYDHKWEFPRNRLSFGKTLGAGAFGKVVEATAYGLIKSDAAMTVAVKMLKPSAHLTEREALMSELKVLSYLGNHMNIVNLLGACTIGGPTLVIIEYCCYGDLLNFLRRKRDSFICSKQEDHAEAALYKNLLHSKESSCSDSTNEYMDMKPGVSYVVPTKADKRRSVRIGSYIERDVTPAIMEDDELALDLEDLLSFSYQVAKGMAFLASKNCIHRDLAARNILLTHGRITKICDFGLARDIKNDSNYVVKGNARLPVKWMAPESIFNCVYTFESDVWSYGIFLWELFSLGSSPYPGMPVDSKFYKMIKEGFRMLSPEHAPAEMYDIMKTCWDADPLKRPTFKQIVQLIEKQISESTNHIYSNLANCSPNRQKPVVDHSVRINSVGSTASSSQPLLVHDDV

[10] = biological target: Calcium/calmodulin-dependent protein kinase type II subunit gamma (Homo sapiens) (UniProt Q13555); details: Compound concentration 1000.0 nM
[11] = biological target: Cyclin-dependent kinase 14 (Homo sapiens) (UniProt O94921); details: Compound concentration 1000.0 nM
Cyclin-dependent kinase 14 (Homo sapiens), sequence (O94921 whole entry): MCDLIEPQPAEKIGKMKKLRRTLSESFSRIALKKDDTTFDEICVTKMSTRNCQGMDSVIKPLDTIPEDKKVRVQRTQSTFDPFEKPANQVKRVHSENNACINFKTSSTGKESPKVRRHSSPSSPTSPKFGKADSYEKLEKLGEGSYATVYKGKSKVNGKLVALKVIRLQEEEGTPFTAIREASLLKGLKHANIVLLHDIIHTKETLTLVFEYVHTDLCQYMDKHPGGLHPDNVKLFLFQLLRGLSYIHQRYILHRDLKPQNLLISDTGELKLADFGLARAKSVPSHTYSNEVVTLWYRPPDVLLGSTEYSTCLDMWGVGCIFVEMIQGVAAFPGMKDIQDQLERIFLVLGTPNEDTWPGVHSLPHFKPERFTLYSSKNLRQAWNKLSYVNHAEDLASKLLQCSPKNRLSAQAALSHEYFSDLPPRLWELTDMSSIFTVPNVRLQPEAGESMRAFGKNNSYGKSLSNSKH

[12] = biological target: T1, 5-hydroxytryptamine receptor 2C (Homo sapiens) (UniProt P28335); assay: 5-HT2C (h) Eurofins-Cerep binding assay; design: ligand concentration 1 nM; details: filed as antagonist, Compound concentration 10.0 uM
T1 sequence (whole entry): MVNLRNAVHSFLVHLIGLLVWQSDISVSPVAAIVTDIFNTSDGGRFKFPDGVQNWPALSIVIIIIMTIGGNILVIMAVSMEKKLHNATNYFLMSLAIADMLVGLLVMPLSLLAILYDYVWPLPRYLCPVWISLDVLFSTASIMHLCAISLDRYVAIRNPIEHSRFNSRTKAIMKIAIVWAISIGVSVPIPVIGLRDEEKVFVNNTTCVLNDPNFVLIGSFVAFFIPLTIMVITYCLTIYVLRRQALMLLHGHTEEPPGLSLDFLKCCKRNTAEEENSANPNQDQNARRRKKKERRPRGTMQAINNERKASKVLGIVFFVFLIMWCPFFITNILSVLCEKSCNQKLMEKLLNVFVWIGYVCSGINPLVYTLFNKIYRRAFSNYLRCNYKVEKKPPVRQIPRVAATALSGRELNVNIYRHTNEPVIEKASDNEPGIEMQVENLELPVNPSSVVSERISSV

[13] = system: Receptor-type tyrosine-protein kinase FLT3 (Homo sapiens), P36888 [UNDEFINED MUTATION]; details: Compound concentration 1000.0 nM
[14] = biological target: Cyclin-dependent kinase 4 (Homo sapiens) (UniProt P11802); details: Compound concentration 1000.0 nM
[15] = biological target: MAO-B (amine oxidase [flavin-containing] B) (Homo sapiens, UniProt P27338); assay: MAO-B (h) recombinant enzyme Eurofins-Cerep enzyme and uptake assay; design: incubation time 60 min, incubation temperature 37°C, substrate/stimulus/tracer D-Luciferin derivative (4 µM); details: probe D-Luciferin derivative (4 µM), compound concentration 10 uM, read-out: % Inhibition of Control Values (Mean n=2)
[16] = biological target: Mitogen-activated protein kinase 6 (Homo sapiens) (UniProt Q16659); details: Compound concentration 1000.0 nM
Mitogen-activated protein kinase 6 (Homo sapiens), sequence (Q16659 whole entry): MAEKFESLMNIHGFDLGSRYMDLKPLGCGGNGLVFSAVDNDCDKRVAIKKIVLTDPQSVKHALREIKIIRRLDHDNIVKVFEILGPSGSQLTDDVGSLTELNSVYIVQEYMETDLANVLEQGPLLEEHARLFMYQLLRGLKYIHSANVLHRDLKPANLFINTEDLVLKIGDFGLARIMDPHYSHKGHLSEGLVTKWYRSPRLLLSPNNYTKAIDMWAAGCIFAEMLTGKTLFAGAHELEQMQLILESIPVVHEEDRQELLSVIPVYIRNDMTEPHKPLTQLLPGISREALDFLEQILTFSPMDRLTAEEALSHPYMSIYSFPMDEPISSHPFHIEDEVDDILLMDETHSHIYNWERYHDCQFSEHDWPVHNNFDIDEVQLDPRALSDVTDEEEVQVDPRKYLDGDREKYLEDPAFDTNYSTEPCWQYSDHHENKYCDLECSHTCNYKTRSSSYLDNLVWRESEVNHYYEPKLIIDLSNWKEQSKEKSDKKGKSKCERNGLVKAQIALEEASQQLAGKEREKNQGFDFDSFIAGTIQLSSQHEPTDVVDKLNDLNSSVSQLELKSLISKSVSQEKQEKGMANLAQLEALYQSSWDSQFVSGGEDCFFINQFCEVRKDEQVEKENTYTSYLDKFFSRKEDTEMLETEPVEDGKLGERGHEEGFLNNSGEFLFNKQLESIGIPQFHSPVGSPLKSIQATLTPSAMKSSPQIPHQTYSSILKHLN

[17] = biological target: Calcitonin-gene-related peptide receptor, CALCRL/RAMP1 (Homo sapiens) (UniProt O60894+Q16602); assay: CGRP (h) Eurofins-Cerep binding assay; assay type: protein-complex assay; design: ligand concentration 0.03 nM; details: filed as agonist, Compound concentration 10.0 uM
[18] = biological target: T2, Alpha-2B adrenergic receptor (Homo sapiens) (UniProt P18089); assay: Alpha2B (h) Eurofins-Cerep binding assay; design: ligand concentration 2.5 nM; details: filed as antagonist, Compound concentration 10.0 uM
T2 sequence (whole entry): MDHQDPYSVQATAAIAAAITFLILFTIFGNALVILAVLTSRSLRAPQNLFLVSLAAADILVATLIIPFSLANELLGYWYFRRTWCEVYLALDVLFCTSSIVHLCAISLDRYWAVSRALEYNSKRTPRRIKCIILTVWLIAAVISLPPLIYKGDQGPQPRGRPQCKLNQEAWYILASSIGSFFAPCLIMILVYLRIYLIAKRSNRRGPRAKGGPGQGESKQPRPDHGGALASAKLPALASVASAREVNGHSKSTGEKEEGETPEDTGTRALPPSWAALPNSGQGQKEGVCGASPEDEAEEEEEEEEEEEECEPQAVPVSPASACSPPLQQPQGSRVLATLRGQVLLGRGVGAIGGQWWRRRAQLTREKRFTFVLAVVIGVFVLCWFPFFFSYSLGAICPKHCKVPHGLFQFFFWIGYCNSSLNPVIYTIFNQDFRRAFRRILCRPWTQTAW

[19] = biological target: Cyclin-dependent kinase 2 (Homo sapiens) (UniProt P24941); details: Compound concentration 1000.0 nM
[20] = biological target: TGF-beta receptor type-2 (Homo sapiens) (UniProt P37173); details: Compound concentration 1000.0 nM
[21] = biological target: Serine/threonine-protein kinase Nek1 (Homo sapiens) (UniProt Q96PY6); details: Compound concentration 1000.0 nM
[22] = biological target: Ribosomal protein S6 kinase alpha-2 (Homo sapiens) (UniProt Q15349); details: Compound concentration 1000.0 nM
[23] = biological target: Myosin light chain kinase 2, skeletal/cardiac muscle (Homo sapiens) (UniProt Q9H1R3); details: Compound concentration 1000.0 nM
Myosin light chain kinase 2, skeletal/cardiac muscle (Homo sapiens), sequence (Q9H1R3 whole entry): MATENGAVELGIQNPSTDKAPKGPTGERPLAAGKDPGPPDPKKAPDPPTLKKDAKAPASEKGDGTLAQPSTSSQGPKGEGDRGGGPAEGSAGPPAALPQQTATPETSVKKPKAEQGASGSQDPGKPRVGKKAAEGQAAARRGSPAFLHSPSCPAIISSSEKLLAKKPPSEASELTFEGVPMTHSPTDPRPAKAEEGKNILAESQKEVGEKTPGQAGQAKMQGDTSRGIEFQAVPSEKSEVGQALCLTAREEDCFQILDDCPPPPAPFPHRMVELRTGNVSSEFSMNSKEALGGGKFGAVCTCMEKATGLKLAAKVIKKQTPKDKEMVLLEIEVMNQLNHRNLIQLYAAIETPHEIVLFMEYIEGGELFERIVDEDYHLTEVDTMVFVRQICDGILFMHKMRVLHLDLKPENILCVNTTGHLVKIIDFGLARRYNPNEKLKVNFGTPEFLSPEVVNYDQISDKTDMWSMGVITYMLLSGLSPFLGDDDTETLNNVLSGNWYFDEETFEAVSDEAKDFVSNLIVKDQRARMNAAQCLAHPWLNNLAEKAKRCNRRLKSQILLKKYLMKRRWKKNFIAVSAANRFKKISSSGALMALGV

[24] = biological target: Mitogen-activated protein kinase 8 (Homo sapiens) (UniProt P45983); details: Compound concentration 1000.0 nM
[25] = biological target: Phosphatidylinositol 4-phosphate 5-kinase type-1 alpha (Homo sapiens) (UniProt Q99755); details: Compound concentration 1000.0 nM
Phosphatidylinositol 4-phosphate 5-kinase type-1 alpha (Homo sapiens), sequence (Q99755 whole entry): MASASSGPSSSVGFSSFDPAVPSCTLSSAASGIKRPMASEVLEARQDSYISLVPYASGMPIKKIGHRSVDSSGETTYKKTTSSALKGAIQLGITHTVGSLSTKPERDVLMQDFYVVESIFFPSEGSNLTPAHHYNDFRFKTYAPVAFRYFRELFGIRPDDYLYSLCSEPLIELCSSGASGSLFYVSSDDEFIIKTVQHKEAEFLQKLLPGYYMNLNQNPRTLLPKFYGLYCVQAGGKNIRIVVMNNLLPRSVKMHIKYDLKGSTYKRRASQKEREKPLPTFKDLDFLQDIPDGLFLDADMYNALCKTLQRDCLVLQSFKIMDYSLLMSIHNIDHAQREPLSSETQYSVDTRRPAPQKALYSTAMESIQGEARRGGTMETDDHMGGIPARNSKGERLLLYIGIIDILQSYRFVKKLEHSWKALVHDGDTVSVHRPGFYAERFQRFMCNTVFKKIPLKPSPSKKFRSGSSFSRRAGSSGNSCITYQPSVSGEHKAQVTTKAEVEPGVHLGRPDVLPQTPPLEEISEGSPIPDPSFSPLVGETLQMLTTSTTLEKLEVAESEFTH

[26] = biological target: Bone morphogenetic protein receptor type-1A (Homo sapiens) (UniProt P36894); details: Compound concentration 1000.0 nM
[27] = biological target: Activin receptor type-1-like (Homo sapiens) (UniProt P37023); details: Compound concentration 1000.0 nM
Activin receptor type-1-like (Homo sapiens), sequence (P37023 whole entry): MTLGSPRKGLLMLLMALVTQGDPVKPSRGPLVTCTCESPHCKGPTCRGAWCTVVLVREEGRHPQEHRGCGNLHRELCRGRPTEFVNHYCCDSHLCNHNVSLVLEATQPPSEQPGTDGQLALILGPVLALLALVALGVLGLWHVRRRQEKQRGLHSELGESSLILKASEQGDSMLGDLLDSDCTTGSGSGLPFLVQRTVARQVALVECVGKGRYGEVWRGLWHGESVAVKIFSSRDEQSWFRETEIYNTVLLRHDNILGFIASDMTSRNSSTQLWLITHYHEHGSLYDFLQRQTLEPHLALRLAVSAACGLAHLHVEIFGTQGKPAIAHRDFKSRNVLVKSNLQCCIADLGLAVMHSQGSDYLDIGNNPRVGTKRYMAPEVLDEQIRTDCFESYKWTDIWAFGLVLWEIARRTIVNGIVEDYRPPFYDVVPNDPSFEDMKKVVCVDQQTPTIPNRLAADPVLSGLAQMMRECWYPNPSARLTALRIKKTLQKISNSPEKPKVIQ

[28] = biological target: Serine/threonine-protein kinase PAK 4 (Homo sapiens) (UniProt O96013); details: Compound concentration 1000.0 nM
[29] = biological target: Cyclin-dependent kinase 18 (Homo sapiens) (UniProt Q07002); details: Compound concentration 1000.0 nM
[30] = system: Mast/stem cell growth factor receptor Kit (Homo sapiens), P10721 [A829P]; details: Compound concentration 1000.0 nM
Mast/stem cell growth factor receptor Kit (Homo sapiens), P10721 [A829P], sequence (P10721 whole entry A829P): as the sequence (P10721 whole entry V559D/T670I) above, with D559V, I670T, A829P counted along it

[31] = biological target: D(2) dopamine receptor (Homo sapiens) (UniProt P14416); details: Compound concentration 10.0 uM

COc1ccc2c(c1)O[C@H](c1ccc(OC)c(OC)c1)C[C@@H]2NC(=O)C1(c2ccc3c(c2)OC(F)(F)O3)CC1 [A-1596584]
-2.5%: % Inhibition of Control Specific Binding (Mean n=2) [17]
4%: % Inhibition of Control Specific Binding (Mean n=2) [6]
16.7%: inhibition at 60 min, 10 µM [15]
36.4%: % Inhibition of Control Specific Binding (Mean n=2) [18]
1.2%: % Inhibition of Control Specific Binding (Mean n=2) [12]
inactive: inhibition [1] -9.23% | residual activity [2] 100% | residual activity [3] 89% | residual activity [4] 95% | residual activity [5] 100% | residual activity [7] 100% | residual activity [8] 100% | residual activity [9] 100% | residual activity [10] 100% | residual activity [11] 98% | residual activity [13] 87% | residual activity [14] 100% | residual activity [16] 100% | residual activity [19] 100% | residual activity [20] 100% | residual activity [21] 100% | residual activity [22] 100% | residual activity [23] 95% | residual activity [24] 96% | residual activity [25] 84% | residual activity [26] 98% | residual activity [27] 90% | residual activity [28] 100% | residual activity [29] 100% | residual activity [30] 69% | inhibition [31] -7.27%

COc1ccc2c(c1)O[C@@H](c1ccc(OC)c(OC)c1)C[C@H]2NC(=O)C1(c2ccc3c(c2)OC(F)(F)O3)CC1 [A-1596586]
11.9%: inhibition at 60 min, 10 µM [15]
6.4%: % Inhibition of Control Specific Binding (Mean n=2) [12]
2.2%: % Inhibition of Control Specific Binding (Mean n=2) [6]
63.5%: % Inhibition of Control Specific Binding (Mean n=2) [18]
inactive: inhibition [1] -1.53% | residual activity [2] 76% | residual activity [3] 100% | residual activity [4] 79% | residual activity [5] 86% | residual activity [7] 85% | residual activity [8] 100% | residual activity [9] 99% | residual activity [10] 96% | residual activity [11] 93% | residual activity [13] 76% | residual activity [14] 95% | residual activity [16] 100% | residual activity [19] 99% | residual activity [20] 87% | residual activity [21] 100% | residual activity [22] 90% | residual activity [23] 90% | residual activity [24] 91% | residual activity [25] 72% | residual activity [26] 92% | residual activity [27] 97% | residual activity [28] 89% | residual activity [29] 100% | residual activity [30] 75% | inhibition [31] 2.62%
-7%: % Inhibition of Control Specific Binding (Mean n=2) [17]

Source: ChEMBL document CHEMBL4507262, “Data for DCP probe A-1596586” (2021)
